Literature values as cited in patent publication US7851464B2, “Spirolactam aryl CGRP receptor antagonists” (Merck Sharp & Dohme Corp., priority 2005, dated 2010).
Ends that are not written are not given here.

Columns and labels:
marmoset = details: Doods et al. 2000
rats = details: prior administration, Williamson et al. 1997
rat = details: Escott et al. 1995

Compound	effect on increase of facial blood flow (marmoset)	effect on increase of middle meningeal artery diameter (rats)	effect on increase of facial blood flow (rat)
NCCCC[C@H](NC(=O)[C@@H](Cc1cc(Br)c(O)c(Br)c1)NC(=O)N1CCC(N2Cc3ccccc3NC2=O)CC1)C(=O)N1CCN(c2ccncc2)CC1 [BIBN4096BS]	blocked		
CGRP(8-37): a peptide CGRP antagonist; fragment of CGRP that lacks seven N-terminal amino acid residues (VTHRLAGLLSRSGGVVKNNFVPTNVGSKAF; ends and bridges not checked; UniProt P06881 90-119, looked up, fragment)		blocked	inhibited
